Reference: patent US20250163022A1, “PARP1 INHIBITORS” (Synnovation Therapeutics, Inc., priority 2021, published 2025)

These molecules were tested against T1, PARP1 (Homo sapiens, UniProt P09874) (assay: In-Cell Western measurement of PARylation in PARP1 WT and knockout cells). Settings: HeLa cells (wide-type with PARP1 gene); hydrogen peroxide-induced PARylation; compounds 30 min, then 10 mM hydrogen peroxide 15 min; read-out: HeLa_WT_IC50.
T1 construct: HeLa cells (wide-type with PARP1 gene) were purchased from ATCC; host or cells: HeLa (wild type)
T1 sequence (P09874 whole entry): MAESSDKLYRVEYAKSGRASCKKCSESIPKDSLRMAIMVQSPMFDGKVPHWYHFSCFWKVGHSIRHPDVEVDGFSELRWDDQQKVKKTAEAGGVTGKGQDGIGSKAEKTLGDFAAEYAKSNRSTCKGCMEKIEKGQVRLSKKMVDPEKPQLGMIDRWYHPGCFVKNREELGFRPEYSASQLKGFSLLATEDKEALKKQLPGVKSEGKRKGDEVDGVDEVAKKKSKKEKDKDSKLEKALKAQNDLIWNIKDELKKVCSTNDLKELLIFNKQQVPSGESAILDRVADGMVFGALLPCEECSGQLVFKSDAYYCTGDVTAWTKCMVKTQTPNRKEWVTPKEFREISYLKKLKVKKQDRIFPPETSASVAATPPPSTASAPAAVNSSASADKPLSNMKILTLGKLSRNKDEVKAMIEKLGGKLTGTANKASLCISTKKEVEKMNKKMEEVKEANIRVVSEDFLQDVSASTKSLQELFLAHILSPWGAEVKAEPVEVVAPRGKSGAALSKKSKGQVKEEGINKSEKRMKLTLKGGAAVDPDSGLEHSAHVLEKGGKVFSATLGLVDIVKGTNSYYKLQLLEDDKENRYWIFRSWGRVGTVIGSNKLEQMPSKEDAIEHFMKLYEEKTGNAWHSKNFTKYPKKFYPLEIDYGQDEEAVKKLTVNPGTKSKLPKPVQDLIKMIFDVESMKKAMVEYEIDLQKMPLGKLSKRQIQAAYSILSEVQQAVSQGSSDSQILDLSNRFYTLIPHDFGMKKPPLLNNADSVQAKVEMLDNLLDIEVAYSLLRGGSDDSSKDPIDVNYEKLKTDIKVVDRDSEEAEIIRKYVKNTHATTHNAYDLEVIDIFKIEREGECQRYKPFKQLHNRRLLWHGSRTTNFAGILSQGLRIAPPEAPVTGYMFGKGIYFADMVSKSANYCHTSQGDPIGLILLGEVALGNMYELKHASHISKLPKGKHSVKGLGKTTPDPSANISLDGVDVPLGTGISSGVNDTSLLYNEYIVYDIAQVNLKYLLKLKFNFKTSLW
Assay type: cell-based
How it was run: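 Wild-type and PARP1-knockout HEK-293T and HAP1 cells, plus HeLa, pretreated with compound 30 min, then stimulated with 10 mM hydrogen peroxide for 15 min. Methanol-fixed cells immunostained for PARylation and imaged by In-Cell Western with infrared secondary antibody; IC50 fitted from signal.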

`CCN1C(=O)Nc2c(F)c(CN3CCN(c4ccc(C(=O)NC5CC5)c(F)c4F)CC3)cc3ncnc1c23` [Compound I-90, N-cyclopropyl-4-(4-((3-ethyl-9-fluoro-2-oxo-2,3-dihydro-1H-pyrimido[4,5,6-de]quinazolin-8-yl)methyl)piperazin-1-yl)-2,3-difluorobenzamide] and `CCN1C(=O)Nc2c(F)c(CN3CCN(c4ccc(C(=O)NC5(CC#N)CC5)c(F)c4F)CC3)cc3ncnc1c23` [Compound I-95, N-(1-(cyanomethyl)cyclopropyl)-4-(4-((3-ethyl-9-fluoro-2-oxo-2,3-dihydro-1H-pyrimido[4,5,6-de]quinazolin-8-yl)methyl)piperazin-1-yl)-2,3-difluorobenzamide] cannot be ordered by IC50: no more than 10 nM for the first, 10 to 100 nM for the second.

`CCN1C(=O)Nc2c(F)c(CN3CCN(c4ccc(C(=O)NC5(CC#N)CC5)cc4C)CC3)cc3ncnc1c23` [Compound I-93, N-(1-(cyanomethyl)cyclopropyl)-4-(4-((3-ethyl-9-fluoro-2-oxo-2,3-dihydro-1H-pyrimido[4,5,6-de]quinazolin-8-yl)methyl)piperazin-1-yl)-3-methylbenzamide] and `CCN1C(=O)Nc2c(F)c(CN3CCN(c4ccc(C(=O)NC5(CC#N)CC5)cc4F)CC3)cc3ncnc1c23` [Compound I-94, N-(1-(cyanomethyl)cyclopropyl)-4-(4-((3-ethyl-9-fluoro-2-oxo-2,3-dihydro-1H-pyrimido[4,5,6-de]quinazolin-8-yl)methyl)piperazin-1-yl)-3-fluorobenzamide] cannot be ordered by IC50: no more than 10 nM for the first, no more than 10 nM for the second.

In the case of `CCN1C(=O)Nc2c(F)c(CN3CCN(c4ccc(C(=O)NC5CCC5)nc4C)CC3)cc3ncnc1c23` [Compound I-96, N-cyclobutyl-5-(4-((3-ethyl-9-fluoro-2-oxo-2,3-dihydro-1H-pyrimido[4,5,6-de]quinazolin-8-yl)methyl)piperazin-1-yl)-6-methylpicolinamide], the IC50 is reported as no more than 10 nM.
